Results: patent publication US12357636B2 (Urovant Sciences GmbH, priority 2018, dated 2025)

Assay: effect of food on oral absorption
Type: in vivo, human
[1] = 150 mg multiple doses, Day 14, middle-aged females
[2] = single 50 mg, Japanese young males
[3] = single 50 mg, non-Japanese young males

SMILES: O=C(Nc1ccc(C[C@@H]2CC[C@H]([C@H](O)c3ccccc3)N2)cc1)[C@@H]1CCc2nccc(=O)n21 [Vibegron, (6S)—N-[4-[[(2S,5R)-5-[(R)-hydroxy(phenyl)methyl]pyrrolidin-2-yl]methyl]phenyl]-4-oxo-7,8-dihydro-6H-pyrrolo[1,2-a]pyrimidine-6-carboxamide]
- mean Cmax with food compared to fasted state (150 mg multiple doses, Day 1): 59%
- mean AUC0-24 with food compared to fasted state (150 mg multiple doses, Day 1, middle-aged and elderly females): ~42%
- mean AUC0-24 with food compared to fasted state (150 mg multiple doses, Day 14): ~20%
- mean Cmax with food compared to fasted state (150 mg multiple doses, Day 14): 43%
- reduction in mean AUC0-24hr with food vs fasted [1]: 20%
- reduction in mean Cmax with food vs fasted [1]: 47%
- Tmax (male, human, plasma, oral, single 50 mg, non-Japanese young males, read-out: delay in Tmax with high-fat meal): ~1 h
- reduction in AUC0-inf with standard Japanese breakfast [2]: 37%
- reduction in Cmax with standard Japanese breakfast [2]: 52%
- reduction in AUC0-inf with high-fat meal vs fasted [3]: 46%
- reduction in Cmax with high-fat meal vs fasted [3]: 67%
